pIC50: −log10 of the molar value. Values joined by “and” are separate entries in the source; they are usually repeats but may differ in a detail not shown here. Identical values can stand only once.
Experiments:
[1] = system: SCG neurons; experiment: NGF Withdrawal Killing of SCG Neurons; type: cell-based, Sprague-Dawley rats; details: Rattus norvegicus, Neuron, assayed 48 hours after drug
Excerpt: Cultured Superiour Cervical Ganglion (SCG) neurons of the PNS which have been sustained in media containing Neuron Growth Factor (NGF) undergo apoptotic cell death upon removal of the NGF from the cellular medium. Loss of neuronal trofin support has been implicated in various neurodegenerative disease states in the PNS, such as diabetic neuropathy and neuropahies related to chemotherapeutic and anti-HIV drug treatment.
SCG neurons were harvested from day 1 post natal Sprague-Dawley rats, plated on collagen coated plates and incubated for 5 days in the presence of 50 ng/mL NGF at 37° C. under 5% CO2. The cells were washed with NGF free media, 4 times at 1 hour intervals, at which time drug was added.

[2] = system: SHSY-5Y cells; experiment: Etoposide Killing of SHSY-5Y; type: cell-based; details: etoposide 32 uM
Procedure: SHSY-5Y cells were grown in growth media. Cells are placed at 50,000 cells per 96 well. Four days latter the cells were treated with drug for 48 hours prior to etoposide (32 uM) treatment. On day 6 media was changed to that containing etoposide and drug for 4 hours, at which point the media was changed to media containing drug only. Cells are allowed to survive overnight and then assessed for viability with metabolic activity measured (WST-1-Beohringer Mannheime), as shown in TABLE 13.

[3] = system: CGNs; experiment: Cisplatin Killing of CGNs; type: cell-based, CD1 mice
Procedure: Cisplatin has been used extensively in the treatment of various cancers. One dosblimiting side effect of this chemotherapeutic agent is related to hearing loss as a result of its toxicity to auditory neurons and loss of feeling in the extremities. Cisplatin induces apoptosis to both cultured CGN and cortical neurons.
CGNs were harvested from day 8/9 post-natal CD1 mice, plated on Poly-D-Lycine coated plates and incubated for 6 days at 37° C. under 5% CO2. The cells were treated with media containing drug and cisplatin […].

[4] = system: CGNs; experiment: β-Amyloid Aggregation Assay in CGNs; type: cell-based; details: Mus musculus, 120 h; Aβ 25 μM; assayed 5 days after Aβ addition
Excerpt: Various mechanisms have been put forward in order to account for the neurotoxicity related to extracellular Aβ fibril formation. […] Regardless of the mode of action, extracellular Aβ fibril formation acts as an effective apoptotic trigger for neuronal cells and serves as an in vitro model for various neurodegenerative diseases characterized by extracellular protein fibril formation, typified by diseases such as AD and PD.
CGNs were harvested from day 8/9 post-natal CD1 mice, plated on Poly-D-Lycine coated plates and incubated for 6 days at 37° C. under 5% CO2. Pretreated cells were treated with drug 24 hours prior to A-β (25 μM) and drug addition.

[5] = system: CGNs; experiment: Ceramide Killing of CGNs; type: cell-based, CD1 mice; details: ceramide 100 uM
Excerpt: Ceramide is a native […] found in most mammalian and human cells. The upregulation of endogenous ceramide has been linked to caspase 1 (ICE) induced apoptosis (Suzuki, A. et al. Exp. Cel. Res., 1997, 233, 41). In a similar fashion, the addition of ceramide to cultured CGNs results in caspase induced apoptosis, and is therefore considered an effective in vitro model for the various neurodegenerative diseases described above, which are characterized by caspase induced apoptosis, as observed in stroke models. Addition of selected compounds of the formula I through III, 24 hours prior to the addition of ceramide, to cultured CGNs provided protection against apoptosis, with 10 to 20% of the cells being saved at 1–10 μM drug concentrations (see Example 114).
CGNs were harvested from day 8/9 post-natal CD1 mice, plated on Poly-D-Lycine coated plates and incubated for 6 days at 37° C. under 5% CO2. Cells were pretreated with drug 24 hours prior to ceramide (100 uM) and drug addition.

[6] = system: CGNs; experiment: Glutamate Killing of CGNs; type: cell-based, CD1 mice; details: glutamate 100 uM
Excerpt: Glutaminergic neurons secrete the neurotransmitter glutamate as a part of normal cell signaling processes. Intracellular glutamate levels are regulated by glial cell uptake and conversion to glutamine. Under conditions of oxidative stress, as observed in various neurodegenerative diseases such as stroke, ALS, PD, and HD, glutaminergic neurons release massive amounts of glutamate into the […] fluid, overwhelming the surrounding cells. Stimulation of both NMDA and non NMDA-type glutamate excitory receptors leads to sustained depolarization of postsynaptic dendrosomal membranes, increased membrane permeability, and impaired ion homeostasis, all leading to either apoptotic or necrotic cell death.
CGNs were harvested from day 8/9 post-natal CD1 mice, plated on Poly-D-Lycine coated plates and incubated for 6 days at 37° C. under 5% CO2. Cells were pretreated with drug 24 hours prior to glutamate (100 uM) and drug addition.

[7] = system: CGNs; experiment: High/Low Potassium (HK/LK) assay in CGNs; type: cell-based; details: for pIC50: Mus musculus, HK/LK switch, drug 24 h pre-treatment, assayed 16 h after media change, concentration at which cell death was inhibited by 50%
Procedure: Cultured CGNs which are maintained in a medium containing 26 mM potassium (high K^+ or HK) undergo cell death when the medium is changed to one containing 5 mM potassium (low K^+ or LK). HK maintains the cells in a highly polarized state, duplicating that of fully innervated neurons. The switch to LK (5 mM is more representative of physiological conditions) results in depolarization of the cells, mimicking the loss of neuronal conductivity. […] As these killer genes are turned on by various types of neuronal insult as observed in AD, PD, and stroke, HK/LK is a general in vitro model for neuronal degradation, blanketing a wide range of neurodegenerative diseases. Compounds that protect against HK/LK in CGNs would therefore be efficacious in treatment and/or prevention of various neurodegenerative disease states.
CGNs were harvested from day 8/9 post-natal CD1 mice, plated on Poly-D-Lycine coated plates and incubated for 6 days at 37° C., with […] potassium, under 5% CO2. Pretreated cells were treated with drug 24 hours prior to changing the media to one containing […] potassium and drug. Cells were assayed 16 hours after the final media change using cell TITER96 (Promega).

[8] = system: Cortical neurons; experiment: Cisplatin Killing of Cortical Neurons; type: cell-based, Sprague-Dawley rats; details: drug 10 μM 24 h pre-treatment
Procedure: Cortical neurons were harvested from day E18 female Sprague-Dawley rats, plated on Poly-L-Lycine coated plates and incubated for 14 days at 37° C. under 5% CO2. […]

[9] = system: HIAP1 mRNA in LAN5 cells; experiment: LAN5 HAIP1 Down Regulators (RNA levels); type: cell-based; details: HIAP1 RNA level vs control = 1.0; 24 hours drug
Procedure: LAN5 cells were grown in growth media. Cells were plated at cells 50,000 per well in 96 cells per 96 wells. Five days latter drug was added and the cells were liced 24 hours latter using RLT buffer.

[10] = system: DU145 prostate cancer cells; experiment: Anticancer Effectiveness on Prostate Tumor Cells (Alamar Blue); type: cell-based, Human; details: for % Survival: 7 days
Procedure: Prostate cancer is often resistant to traditional chemotherapies. DU145 is representative prostated cancer cell line. DU145cells were cultured in the presence of various concentrations of compound 136.
Human prostate DUI45 cells were cultured in 96 well dishes. Cells were treated with various concentrations of test compounds for 7 days. Media was then removed and replaced with fresh media containing Alamar Blue. The cells were incubated for a further 4 hours and Alamar blue and conversion was assessed by fluorescence. Compound effectiveness was determined by assessing the reduction in Alamar blue bioconversion following 7 day treatment.

[11] = Mus musculus, assayed 48 hours after final drug treatment

For `O=C1NC(=O)C(n2ccc3ccccc32)=C1c1c[nH]c2ccccc12` [Compound 1, 3-(indol-1-yl)-4-(1H-indol-3-yl)-1H-pyrrole-2,5-dione], the pIC50 [1] was 4.70, the melting point was 212 to 213 °C and the “% SHSY-5Y cell survival” value ([2]; drug 1 μM) was 0%. For the same molecule, the “% SHSY-5Y cell survival” value ([2]; drug 10 μM) was 12.5% and the pIC50 [3, 11] was 5.00.

`COc1ccc2[nH]cc(C3=C(n4ccc5ccccc54)C(=O)NC3=O)c2c1` [Compound 2, 3-(5-Methoxyindol-3-yl)-4-(indol-1-yl)-1H-pyrrole-2,5-dione] showed a pIC50 [4] of 5.00 and a pIC50 [3, 11] of 5.00.

`O=C1NC(=O)C(n2ccc3ccccc32)=C1c1c[nH]c2ccc(OCc3ccccc3)cc12` [Compound 5, 3-(5-Benzyloxy-1H-indol-3-yl)-4-(indol-1-yl)-pyrrole-2,5-dione] showed a melting point of 217 to 220 °C and a pIC50 [3, 11] of 5.00.

`O=C1NC(=O)C(n2ccc3cc(OCc4ccccc4)ccc32)=C1c1c[nH]c2ccccc12` [Compound 12, 3-(5-benzyloxyindol-1-yl)-4-(1H-indol-3-yl)-1H-pyrrole-2,5-dione] showed a melting point of 114 to 116 °C.

`O=C1NC(=O)C(n2ccc3ccccc32)=C1c1c[nH]c2ccc(C#Cc3ccccc3)cc12` [Compound 15, 3-(Indol-1-yl)-4-(5-(β-phenylethynyl)-indol-3-yl)-pyrrole-2,5dione] showed a melting point of 141 to 144 °C.

With `O=C1NC(=O)C2=C1c1c([nH]c3ccccc13)C1Cc3ccccc3N21` (centres unmarked) [Compound 24] the “% CGN Survival” value ([5]; drug 1 μM) was 11.4%, the “% CGN Survival” value ([5]; drug 10 μM) was 10.7% and the “% CGN Survival” value ([6]; drug 100 nM) was 0%. The “% CGN Survival” value ([6]; drug 1 μM) was 17.0%, the “% CGN Survival” value ([6]; drug 10 μM) was 22.3% and the pIC50 [4] was 5.00. The pIC50 [3, 11] was 5.52 and the pIC50 [7] was 5.00.

In the case of `O=C1NC(=O)C2=C1c1c([nH]c3ccc(OCc4ccccc4)cc13)C1Cc3ccccc3N21` (centres unmarked) [Compound 35], the survival ([3]; 300 nM drug, cisplatin) was 80%, the pIC50 ([3]; cisplatin induced apoptosis in CGNs) was 7.00 and the “% Protection at 10 μM” value [8] was 10% and 11%.

In the case of `COc1ccc2[nH]c3c(c4c(n5c6ccccc6cc35)C(=O)NC4=O)c2c1` [Compound 47], the pIC50 [1] was 5.00, the pIC50 [3, 11] was 5.00 and the “inhibition of HK/LK cell death / protection of CGN neurons” value ([7]; 10 μM drug) was “(100% inhibition at 10 (μM)”. For the same molecule, the pIC50 [7] was 5.52.

With `COc1ccc2c(c1)c1c3c(n4c5ccccc5cc4c1n2C(=O)COC(C)=O)C(=O)NC3=O` [Compound 51] the pIC50 [3, 11] was 6.00 and the “% Protection at 10 μM” value [8] was 20% and 23%.

For `O=C1NC(=O)c2c1c1c3cc(OCc4ccccc4)ccc3[nH]c1c1cc3ccccc3n21` [Compound 52], the pIC50 ([3]; assayed 48 hours after final drug treatment) was 5.52 and the “% Protection at 10 μM” value [8] was 50% and 40%.

With `O=C1NC(=O)c2c1c1c3ccccc3[nH]c1c1nc3ccccc3n21` [Compound 53] the “% Protection at 10 μM” value [8] was 41%.

In the case of `CC(=O)n1cc(C2=CC(=O)NC2=O)c2cc(Br)ccc21` [Compound 57, 3-(N-acetyl-5-bromoindol-3-yl)-1H-pyrrole-2,5-dione], the melting point was 271 to 272.9 °C and the “Fold Induction” value [9] was 0.45.

In the case of `CN(C)C(=O)n1cc(C2=CC(=O)NC2=O)c2cc(Br)ccc21` [Compound 58, 3-(N-(N,N-dimethylcarbamoyl)-5-bromoindol-3-yl)-1H-pyrrole-2,5-dione], the melting point was 287 to 288 °C and the “Fold Induction” value [9] was 0.55.

Work on `COc1ccc(C(=O)n2cc(C3=CC(=O)NC3=O)c3cc(OCc4ccccc4)ccc32)c(OC)c1` [Compound 67, 3-(N-(2,4-dimethoxybenzoyl)-5-benzyloxyindol-3-yl)-1H-pyrrole-2,5-dione] yielded a pIC50 [1] of 5.00.

For `COc1ccc2c(c1)c(C1=CC(=O)NC1=O)cn2S(=O)(=O)c1ccc(C)cc1` [Compound 87, 3-(N-tosyl-5-methoxyindol-3-yl)-1H-pyrrole-2,5-dione], the “% CGN Survival” value ([5]; drug 1 μM) was 0%, the “% CGN Survival” value ([5]; drug 10 μM) was 9.1% and the “% CGN Survival” value ([6]; drug 100 nM) was 0%. The “% CGN Survival” value ([6]; drug 1 μM) was 11.5%, the pIC50 [4] was 5.00 and the “Fold Induction” value [9] was 0.37.

`Cc1ccc(S(=O)(=O)n2cc(C3=CC(=O)NC3=O)c3cc(O)ccc32)cc1` [Compound 91, 3-(N-tosyl-5-hydroxyindol-3-yl)-1H-pyrrole-2,5-dione] showed a pIC50 [1] of 4.70.

With `O=C1C=C(c2cn(S(=O)(=O)c3cccs3)c3ccccc23)C(=O)N1` [Compound 97, 3-(N-(2-thiophenesulfonyl)indol-3-yl)-1H-pyrrole-2,5-dione] the pIC50 [1] was 5.00.

`COC(=O)C(C)(C)Cc1c(C2=CC(=O)NC2=O)c2cc(OCc3ccc4ccccc4n3)ccc2n1Cc1ccc(Cl)cc1` [Compound 109] showed a pIC50 [1] of 5.00.

For `CN(C)CCCn1cc(C2=C(n3ccc4ccccc43)C(=O)NC2=O)c2cc(OCc3ccccc3)ccc21` [Compound 136], the cells killed ([10]; 10 μM, after 7 days) was 100%, the “% Survival” value ([10]; 0.312 um) was 102.71% and the “% Survival” value ([10]; 0.625 um) was 97.00%. The “% Survival” value ([10]; 1.25 um) was 99.61%, the “% Survival” value ([10]; 2.5 um) was 81.81% and the “% Survival” value ([10]; 5 um) was 66.75%. For the same molecule, the “% Survival” value ([10]; 10 um) was −1.64%, the “% Survival” value ([10]; 20 um) was −1.00% and the “% Survival” value ([10]; 40 um) was 1.17%.

With `COC(=O)[C@@]1(O)C[C@H]2O[C@]1(C)n1c3ccccc3c3c4c(c5c6ccccc6n2c5c31)C(=O)NC4` [Compound K252a, K252a, reference compound] the “% CGN Survival” value ([5]; 300 nM, (250 nM in source)) was 0 (250 nM) %, the “% CGN Survival” value ([6]; 300 nM, (250 nM in source)) was 4.3 (250 nM) % and the “% SHSY-5Y cell survival” value ([2]; drug 1 μM) was 13.9%. For the same molecule, the “Fold Induction” value [9] was 0.51 and the toxicity ([7]; higher doses) was “toxic at higher doses”.

— patent US7129250B2, “Neuroprotective and anti-proliferative compounds” (Aegera Therapeutics Inc., priority 2000, dated 2006)
